Assay results from patent US20060211747A1, “Methods of screening for compounds which inhibit the activity of Cdc34 in a zinc-mediated manner and compounds obtained by this method” (priority 2004, published 2006).
Where two headings read alike, the source gives them in different places.

What was measured:
Type in all cases: biochemical
[1] = target: T1, UbcH5-Strep (SwissProt P51668) (Homo sapiens, UniProt P51668); experiment: UbcH5 thioester assay; details: thioester formation; n=2
T1 construct: GST with Factor Xa cleavage site (N, cleaved yes); made in house; host or cells: baculovirus, High Five insect cells
T1 sequence (P51668 whole entry): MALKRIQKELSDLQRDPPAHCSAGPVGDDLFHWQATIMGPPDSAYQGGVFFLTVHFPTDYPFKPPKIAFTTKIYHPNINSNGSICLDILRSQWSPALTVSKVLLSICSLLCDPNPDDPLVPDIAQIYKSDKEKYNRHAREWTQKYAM
From the text: (§1) The assays measuring the formation of the thioester intermediate between ubiquitin and the ubiquitin conjugating enzymes Cdc34 (SwissProt P49427) UbcH5 (SwissProt P51668) and UbcH10 (SwissProt O00762) are described below.
(§2) UbcH5 and UbcH10 thioester assays: Here, we describe an assay, based on time resolved fluorescence, to monitor the formation of the thioester intermediate between ubiquitin and the ubiquitin-conjugating enzymes UbcH5, respectively UbcH10. […]

[2] = target: T2, UbcH10-Strep (SwissProt O00762) (Homo sapiens, UniProt O00762); experiment: UbcH10 thioester assay; details: thioester formation; n=2
T2 construct: GST with Factor Xa cleavage site (N, cleaved yes); made in house; host or cells: baculovirus, High Five insect cells
T2 sequence (O00762 1-179): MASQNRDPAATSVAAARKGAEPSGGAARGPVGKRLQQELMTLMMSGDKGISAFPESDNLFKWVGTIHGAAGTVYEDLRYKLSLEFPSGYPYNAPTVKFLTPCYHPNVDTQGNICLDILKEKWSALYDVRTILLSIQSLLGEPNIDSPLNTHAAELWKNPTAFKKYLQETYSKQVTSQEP
From the text: as §1, §2

Cdc34-FLAG = target: T3, Cdc34-FLAG (Homo sapiens, UniProt P49427); experiment: Cdc34 thioester assay in the presence of the chelating agents phenantroline or TSQ (zinc depletion / re-addition); details: for IC50: read-out: Compound I IC50
T3 construct: GST with Factor Xa cleavage site (N, cleaved yes); made in house; host or cells: baculovirus, High Five insect cells
T3 sequence (P49427 1-236): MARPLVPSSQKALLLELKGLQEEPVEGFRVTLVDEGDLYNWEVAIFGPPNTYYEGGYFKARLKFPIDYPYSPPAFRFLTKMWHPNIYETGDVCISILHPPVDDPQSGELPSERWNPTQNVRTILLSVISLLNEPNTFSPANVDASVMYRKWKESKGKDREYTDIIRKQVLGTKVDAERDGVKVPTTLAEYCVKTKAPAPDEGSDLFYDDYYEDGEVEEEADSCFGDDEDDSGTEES
Method: (§3) Cdc34 thioester assay: Here, we describe an assay, based on time resolved fluorescence, to monitor the formation of the thioester intermediate between ubiquitin and the ubiquitin-conjugating enzyme Cdc34. The assay is aimed at screening for inhibitors of Cdc34 thioester formation and requires Eu-labelled ubiquitin (Eu—Ub), GST-E1 and Cdc34-FLAG. • Mix: In non-absorbing plates • 10 μl Test compound 5×conc. in 5% DMSO • 30 μl Cdc34-FLAG (20.8 nM) in 1×TEB (no ATP) • Incubate 10 min at RT • Add: 10 μl Eu—Ub (31.2 nM), GST-E1 (125 nM) in 1×TEB+ATP (Pre-incubated 10 min at RT). • Incubate 30 min at RT • Final Concentrations: Test compound 50/12.5/3.13/0.78/0.2/0.05 μM • Cdc34-FLAG 12.5 nM • Eu—Ub 6.25 nM • GST-E1 25 nM • Transfer: 45 μl To streptavidin coated plate containing 50 μl / well Superblock−TBS+1 mM NEM+100 nM biotinylated anti-FLAG antibody • Incubate 2 hours at RT • Wash 6×200 μl/well with 1× Wallac Wash Solution • Add 200 μl/well Wallac Enhancer Solution • Mix 5 min • Read • Positive Control: no test compound, 10 μl 5% DMSO • Negative Control: no Cdc34-FLAG, 30 μl 1×TEB (no ATP)
Cdc34 thioester assay in the presence of the chelating agents phenantroline or TSQ In order to deplete Cdc34 from zinc prior to measuring the inhibitory activity of the test compounds, the Cdc34 thioester assay described above was modified as follows. • Mix: In non-absorbing plates on ice • 10 μl Cdc34-FLAG (62.5 nM) in 1×TEB (no ATP) • 10 μl 5× Phenanthroline/5×TSQ/buffer • 10 μl 5×ZnCl2/buffer • Incubate 10 min on ice • Add: 10 μl Test compound 5×conc. in 5% DMSO • 10 μl Eu—Ub (31.2 nM), GST-E1 (125 nM) in 1×TEB+ATP (Pre-incubated 10 min at RT). • Incubate 30 min at RT • Phenanthroline (Sigma # P-9375) • TSQ (Molecular Probes # M-688)
(§4) The IC50 is defined as 50% inhibition of E2-ubiquitin thioester formation, estimated as the difference in fluorescence obtained in the presence or absence of E2 (Cdc34, UbcH5 or UbcH10).

[3] = target: T4, Cdc34-FLAG (ubiquitin conjugating enzyme Cdc34, SwissProt P49427) (Homo sapiens, UniProt P49427); experiment: Cdc34 thioester assay (time resolved fluorescence)
T4 construct: GST with Factor Xa cleavage site (N, cleaved yes); made in house; host or cells: baculovirus, High Five insect cells
T4 sequence (P49427 1-236): T3 sequence (P49427 1-236)
Method: as §3, §4

With `Cc1cc(C)n(C(=O)c2cn3c(C)csc3n2)n1` [Compound I, (3,5-dimethyl-pyrazol-1-yl)-(3-methyl-imidazo[2,1-b]thiazol-6-yl)-methanone] as the compound, how does the IC50 [1] read?
The IC50 was > 50000 nM.

And the IC50 [2]?
Its IC50 is > 50000 nM.

And the IC50 (Cdc34-FLAG; 1,10-Phenanthroline 0 μM, ZnCl2 0 nM)?
Its IC50 is 740 nM.

What about the IC50 (Cdc34-FLAG; 1,10-Phenanthroline 0 μM, ZnCl2 100 nM) of the same compound?
The IC50 was 550 nM.

What about the IC50 (Cdc34-FLAG; 1,10-Phenanthroline 0 μM, ZnCl2 200 nM) of the same compound?
The IC50 was 360 nM.

What about the IC50 (Cdc34-FLAG; 1,10-Phenanthroline 2 μM, ZnCl2 0 nM) of the same compound?
Its IC50 is 1400 nM.

And the IC50 (Cdc34-FLAG; 1,10-Phenanthroline 2 μM, ZnCl2 100 nM)?
The IC50 was 640 nM.

And the IC50 (Cdc34-FLAG; 1,10-Phenanthroline 2 μM, ZnCl2 200 nM)?
The IC50 was 710 nM.

And the IC50 (Cdc34-FLAG; 1,10-Phenanthroline 10 μM, ZnCl2 0 nM)?
Its IC50 is 8800 nM.

What about the IC50 (Cdc34-FLAG; 1,10-Phenanthroline 10 μM, ZnCl2 100 nM) of the same compound?
Its IC50 is 4600 nM.

And the IC50 (Cdc34-FLAG; 1,10-Phenanthroline 10 μM, ZnCl2 200 nM)?
Its IC50 is 1380 nM.

And the “inhibitory activity on Cdc34 thioester formation” value (Cdc34-FLAG; Cdc34 pretreated with 50 μM phenanthroline (FIG. 3))?
The value was “completely abolished”.

What about the IC50 (Cdc34-FLAG; TSQ 0 μM, ZnCl2 0 nM) of the same compound?
Its IC50 is 640 nM.

What about the IC50 (Cdc34-FLAG; TSQ 0 μM, ZnCl2 100 nM) of the same compound?
The IC50 was 600 nM.

What about the IC50 (Cdc34-FLAG; TSQ 0 μM, ZnCl2 200 nM) of the same compound?
The IC50 was 700 nM.

What about the IC50 (Cdc34-FLAG; TSQ 2 μM, ZnCl2 0 nM) of the same compound?
The IC50 was 4200 nM.

What about the IC50 (Cdc34-FLAG; TSQ 2 μM, ZnCl2 100 nM) of the same compound?
Its IC50 is 950 nM.

What about the IC50 (Cdc34-FLAG; TSQ 2 μM, ZnCl2 200 nM) of the same compound?
The IC50 was 1300 nM.

What about the IC50 (Cdc34-FLAG; TSQ 10 μM, ZnCl2 0 nM) of the same compound?
Its IC50 is 10600 nM.

What about the IC50 (Cdc34-FLAG; TSQ 10 μM, ZnCl2 100 nM) of the same compound?
Its IC50 is 3300 nM.

What about the IC50 (Cdc34-FLAG; TSQ 10 μM, ZnCl2 200 nM) of the same compound?
The IC50 was 600 nM.

What about the “effect of phenantroline on inhibitory activity of the compounds” value (Cdc34-FLAG; compound added to Cdc34 before phenantroline (data not shown)) of the same compound?
Its value is “failed to abolish the inhibitory activity”.

What about the IC50 ([3]; thioester formation, mean of n=5, read-out: Cdc34-FLAG IC50) of the same compound?
Its IC50 is 390 nM.

`Cc1cc(C)n(C(=O)c2cn3ccsc3n2)n1` [Compound II, (3,5-Dimethyl-pyrazol-1-yl)-imidazo[2,1-b]thiazol-6-yl-methanone] was tested. Which IC50 ([3]; read-out: IC50 values as determined in the Cdc34 thioester assays) did it give?
The IC50 was ≤ 1000 nM.

Which results are given for `CCCc1csc2nc(C(=O)n3nc(C)cc3C)cn12` [Compound V, (3,5-dimethyl-pyrazol-1-yl)-(3-propyl-imidazo[2,1-b]thiazol-6-yl)-methanone]?
IC50 [1]: > 50000 nM; IC50 [2]: > 50000 nM

How did the “effect per se on the ability of Cdc34 to undergo thioester formation with ubiquitin” value (Cdc34-FLAG; FIG. 3) turn out when `c1cnc2c(c1)ccc1cccnc12` [phenathroline, 1,10-Phenanthroline, reference compound] was run?
Its value is “does not affect per se”.
